Among the data in PubChem BioAssay (NCI) are TGI and GI50 values, retold here.

Where “and” joins values, the source holds several entries; their conditions need not be identical. Equal values may be shown once.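 Protocol summary: plate cells (96-well), add compound at 5 concentrations, incubate 48 h, interpolate endpoints linearly. Here, GI50 denotes the concentration required for 50% inhibition of growth. At the TGI there is no net growth.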

Common to all, as to experiment: inhibition of tumour cell growth, NCI panel, 48 h
In assay [1] the test system is BT-549 breast.
The subject of assay [2] is COLO 205 colon.
Assay [3] deals with HCT-116 colon.
Assay [4] concerns HOP-92 NSCLC.
Assay [5] relates to M14 melanoma.
Assay [6] concerns MALME-3M melanoma.
Assay [7] concerns MCF7 breast.
The subject of assay [8] is MDA-MB-435.
For assay [9], the system named is SK-MEL-2 melanoma.
Assay [10] relates to SNB-75 CNS.

In the case of `COc1cccc(/C=C/c2ccnc3ccccc23)c1OC`, the TGI in [1], in assay [2], in assay [3], in [4], in assay [5] and in [6] was above 10 µM each time. Also, the TGI in assay [7], in assay [8], in [9] and in [10] was above 10 µM in each case.

Consider `O=c1c2ccccc2nc(-c2ccccc2Cl)n1-c1nnc(C(F)(F)F)s1`, for which the GI50 is 3.36 µM in assay [1]; 3.86 µM in assay [2]; 2.7 µM in assay [3]; 0.514 µM in assay [4]; 4.17 µM in assay [5]; 2.51 µM in assay [6]. In addition, the GI50 in assay [7] is 3.03 µM; in assay [8], 3.19 µM; in [9], 2.72 µM; in assay [10] it was 3.47 µM. In addition, the TGI amounted to 10.9 µM in assay [1]; 21.3 µM in [2]; 10.1 µM in assay [3]; 3.43 µM in [4]; 23.7 µM in assay [5]; 7.35 µM in assay [6]. For the same compound, the TGI in assay [7] is above 100 µM; in assay [8], 53.1 µM; in assay [9] it was 6.27 µM; in assay [10] it was above 100 µM.

With `Nc1cc(C(F)(F)F)c(-c2cc(N3CCOCC3)nc(N3CCOCC3)n2)cn1`, the GI50 was 0.558 µM and 0.727 µM in assay [1]; 0.629 µM and 1.25 µM in assay [2]; 1.21 µM and 1.12 µM in [3]; 0.162 µM and 0.0723 µM in [4]; 0.669 µM and 0.644 µM in assay [5]; 0.325 µM and 0.369 µM in [6]. Also, the GI50 in assay [7] was 0.228 µM and 0.257 µM; in [8] it was 0.275 µM and 0.29 µM; in [9] it was 0.678 µM and 0.385 µM; in [10], 0.179 µM and 0.377 µM. For the same compound, the TGI in [1] is > 7.16 µM and 6.67 µM; in assay [2] it was 2.8 µM and 3.42 µM; in assay [3] it was > 10 µM and 9.38 µM; in assay [4], 1.17 µM and 0.617 µM; in [5] it was 4.04 µM and 3.88 µM; in assay [6], 2.53 µM and 4.95 µM. Moreover, the TGI in [7] was > 10 µM and 4.05 µM; in [8], 1.03 µM and 1.32 µM; in assay [9] it was 3.39 µM and 2.27 µM; in [10] it was 1.46 µM and 2.02 µM.

Take `COc1cc(/C=C/C(=O)N2CCC=CC2=O)cc(OC)c1OC`: the GI50 is 2.45 µM in assay [1]; 1.93 µM in [2]; 1.8 µM in [3]; 2.29 µM in [4]; 1.92 µM in assay [5]; 1.97 µM in [6]. Besides, the GI50 in assay [7] is 2.36 µM; in assay [8], 2.21 µM; in assay [9], 2.53 µM; in [10], 36.6 µM. Also, the TGI in [1] amounted to 7.84 µM; in assay [2], 4.14 µM; in assay [3], 4.13 µM; in assay [4], 4.61 µM; in assay [5], 4.41 µM; in assay [6], 3.97 µM. Further, the TGI in [7] was 13.9 µM; in assay [8], 6.05 µM; in [9], 7.09 µM; in [10], above 100 µM.

As for `CCN(CC)c1ccc2nc3c4ccccc4c(=O)cc-3n(-c3ccccc3)c2c1`, the GI50 in assay [1] was 1.95 µM; in assay [2] it was 0.353 µM; in assay [3], 1.35 µM; in [4] it was 1.24 µM; in [5] it was 1.91 µM; in assay [6], 1.4 µM. The GI50 in [7] is 0.53 µM; in assay [8], 0.899 µM; in [9], 1.42 µM; in assay [10] it was 2.34 µM. For the same compound, the TGI in [1] amounted to 5.06 µM; in [2], 1.59 µM; in [3] it was 3.27 µM; in assay [4] it was 4.78 µM; in assay [5] it was 3.8 µM; in [6], 3.56 µM. The TGI was found to be 7.83 µM in assay [7], 3.46 µM in assay [8], 3.95 µM in [9] and 12.7 µM in assay [10].

Consider `O=Cc1c(-c2ccccc2)[nH]c2ccccc2c1=O`, for which the TGI in assay [1] is above 100 µM; in [2], 82.3 µM; in assay [3], above 100 µM; in [4], above 100 µM; in assay [5] it was above 100 µM; in assay [6], above 100 µM. Moreover, the TGI in [7] is above 100 µM; in assay [8] it was 88.1 µM; in [9], above 100 µM; in assay [10], 86.4 µM.

As to `CCOC(=O)/C(C#N)=C1\SS/C(=C(/C#N)C(=O)OCC)S1`, the GI50 in [1] is 17.8 µM; in assay [2], 0.861 µM; in [3], 14.2 µM; in [4], 14.3 µM; in assay [5] it was 17 µM; in assay [6], 11.6 µM. Further, the GI50 was 18.3 µM in assay [7], 17.1 µM in assay [8], 18.7 µM in assay [9] and 22.4 µM in assay [10]. Moreover, the TGI in [1] came out at 32.7 µM; in assay [2], 2.67 µM; in [3] it was 33.5 µM; in assay [4], 28.3 µM; in [5], 35.9 µM; in [6], 27.4 µM. Moreover, the TGI in [7] is 41.1 µM; in assay [8], 33.1 µM; in assay [9] it was 40.2 µM; in assay [10], 57.5 µM.

Take `Cc1ccc(-c2nc(N3CCNCC3)c3oc(-c4ccccc4)nc3n2)cc1`: the GI50 in [1] is 13.8 µM; in assay [2], 1.81 µM; in assay [3], 1.85 µM; in assay [4], 1.66 µM; in assay [5], 1.78 µM; in assay [6], 2.07 µM. In addition, the GI50 in assay [7] is 1.85 µM; in [8], 1.76 µM; in assay [9], 2.64 µM; in [10] it was 1.62 µM. Moreover, the TGI in assay [1] is 31.6 µM; in [2], 3.53 µM; in [3], 3.29 µM; in assay [4], 3.36 µM; in assay [5], 3.31 µM; in assay [6] it was 3.75 µM. Besides, the TGI in assay [7] was determined as 3.75 µM; in assay [8], 3.22 µM; in assay [9] it was 6.01 µM; in assay [10] it was 3.02 µM.
